This is an account of results in the Deep4Chem optical property database.

The data set in a line: solvent given as SMILES.

Where “and” joins values, the source holds several entries; their conditions need not be identical. Identical values can stand only once.

In turn, `CCCCC(CC)CN1C(=O)c2cc(Oc3ccc(OC)cc3)c3c4c(Cl)cc5c6c(cc(Cl)c(c7c(Oc8ccc(OC)cc8)cc(c2c37)C1=O)c64)C(=O)N(c1c(C(C)C)cccc1C(C)C)C5=O` (centres undefined) registered an emission maximum (in Cc1ccccc1) of 614 nm.
With `Cn1c(-c2ccc(-c3nc(-c4ccccc4)c(-c4ccccc4)n3C)cc2)nc(-c2ccccc2)c1-c1ccccc1`, the emission maximum (in CC#N) is 440 nm and 417 nm.
Same read-out and setting: the result for `CCOC(=O)c1c2c3c(ccc(F)c3c3cc4c(cc13)[Si](C)(C)O[Si]4(C)C)N(C)C2=O` reads 411 nm.
As for `Cc1cc2c(o1)c(C)cc1ccc(=O)oc12`, the emission maximum was 360 nm (in C1CCCCC1); 380 nm (in C1COCCO1); 435 nm (in CC#N); 460 nm (in CCO); 485 nm (in OCC(F)(F)F).
For the setting “in ClCCl”, `c1ccc(-c2ccc(-c3cc(-c4ccccn4)nc(-c4ccccn4)c3)cc2)cc1` had an emission maximum of 360 nm.
Where the note is “in CO”, `C(C1=[NH+]c2cccc3cccc1c23)=c1[nH]c2cccc3cccc1c32` gave an emission maximum of 617 nm.
As to `CCCN1/C(=C/C=C(/C=C/c2sc3ccccc3[n+]2CCC)c2ccc([N+](=O)[O-])cc2)Sc2ccccc21`, the emission maximum runs as follows: (in CO) 663 nm; (in CS(C)=O) 673 nm; (in O) 669 nm.
As for `O=c1c2cc(F)c(N3CCCCC3)cc2sc2cc(N3CCCCC3)c(F)cc12`, the emission maximum (in CCO) stood at 487 nm.
Where the note is “in CCO”, `CC1=C(Cl)C(/C=C/c2ccc3c(c2)c2ccccc2n3Cc2cn(CCC[P+](c3ccccc3)(c3ccccc3)c3ccccc3)nn2)=[N+]2C1=C(c1ccc(I)cc1)c1c(C)c(Cl)c(C)n1[B-]2(F)F` had an emission maximum of 650 nm.
`O=S(=O)([O-])c1cc([O-])c2ccc3c(S(=O)(=O)[O-])cc(S(=O)(=O)[O-])c4ccc1c2c34`: the emission maximum (in CC#N) is 513 nm; the emission maximum (in CC(C)O) is 511.01 nm; the emission maximum (in CCO) stood at 510 nm; the emission maximum (in CO) is 509.01 nm; the emission maximum (in NC=O) worked out at 519 nm; the emission maximum (in O) was 511.01 nm. The emission maximum was determined as 506 nm (in OC(C(F)(F)F)C(F)(F)F), 508 nm (in OCC(F)(F)F) and 512.01 nm (in OCCO).
Under “in CN(C)C=O”, `CCN(CC)c1ccc(/C=C2\CC/C(=C\c3ccc(N(c4ccccc4)c4ccccc4)cc3)C2=C(C#N)C#N)cc1` yielded an emission maximum of 716 nm.
Regarding `O=C1c2ccc3c4c(-c5ccccc5)cc5c6c(ccc(c7c(-c8ccccc8)cc(c2c37)C(=O)N1C1CCCCC1)c64)C(=O)N(C1CCCCC1)C5=O`, under “in ClC(Cl)Cl”, the emission maximum turned out to be 651 nm.
Where the note is “in CCCCCC”, `CCc1ccc2ccc(-c3ccccc3)nn12` showed an emission maximum of 495 nm.
Turning to `N#Cc1cnc(-c2c3ccccc3c(-c3ccccc3)c3ccccc23)nc1`, the emission maximum by setting is: (in CCO) 520 nm; (in ClCCl) 504 nm.
